# Measurements taken from PubChem BioAssay (NCI).
#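 Cultured in 96-well plates, cells were exposed to test compound for 48 hours across five concentrations. GI50 is the concentration that inhibits growth by half. TGI: total growth inhibition.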
# System: A498 renal
# Test: growth of human tumour cells (NCI), 48 h
Structure (SMILES),TGI,GI50
COc1ccc2ccc3oc(=O)c(C)cc3c2c1,> 100 µM,–
CN(C)c1nc(Oc2nc(N(C)C)nc(N(C)C)n2)nc(N(C)C)n1,> 100 µM,–
CCCCCCCC(=O)OCC(COC(=O)C(C)(C)C)OC(=O)Cc1ccccc1 (stereo unspecified),> 100 µM,–
CN(C)CCn1c(=O)c2ccc(NCCCN(C)CCCNc3ccc4c(=O)n(CCN(C)C)c(=O)n5c6ccc(O)cc6c(=O)c3c45)c3c(=O)c4cc(O)ccc4n(c1=O)c23,0.367 µM,–
S=C(Cc1ccc2c(c1)Sc1ccccc1O2)N1CCOCC1,> 100 µM,–
COc1ccc2c(c1)c1c(n2CCN2CCCCC2)-c2cccc(OC)c2CC1,49.2 µM,–
O=[N+]([O-])c1ccc(C[P+]2(c3ccccc3)CCCCC2)cc1,> 100 µM,–
Cn1nc(-c2ccc(S(=O)(=O)/N=C(\NN)Nc3ccc(Cl)cc3)s2)cc1C(F)(F)F,31 µM,–
COc1cc(C)c(CC/C(C)=C/Cc2cc(O)ccc2O)c(C)c1C,> 25 µM,–
c1ccc(-c2c(-c3ccccc3)[n+](Cc3ccc4ccccc4c3)c(-c3ccc(-c4nc5ccccc5s4)cc3)n2Cc2ccc3ccccc3c2)cc1,0.542 µM,0.156 µM
CC1CC(N2CCOCC2)=Nc2ccccc2N1C (stereo unspecified),> 100 µM,–
COC(=O)CC(=O)OSc1ccccc1,65 µM,–
CN(C)C(=O)C(F)(F)C(c1ccc(F)cc1)C1C(=O)N(C)C(=O)N(C)C1=O (stereo unspecified),> 100 µM,–
Cc1c(N2CCOCC2)nc2ccc(Cl)cc2c1-c1ccccc1,> 100 µM,–
c1c[nH]c(-c2cccc3nsnc23)c1,> 100 µM,–
COCOc1ccc(C(=O)Oc2cccc3c2OC(C)(C)O3)c(OCOC)c1,> 100 µM,–
NCCN1CCCCCc2ccccc21,> 10 µM,–
CN(CCN1CCCC1)C1CCc2cc(Cl)c(Cl)cc2C1 (stereo unspecified),27.1 µM,–
COc1cc2nc(-c3ccc(Cl)cc3)cc(OCCCN3CCOCC3)c2cc1OC,4.02 µM,1.59 µM
CO/N=C1\CC(NC(=O)C(F)(F)F)c2ccsc21 (stereo unspecified),> 100 µM,–
COC(=O)/C=C(\C)CC/C=C(\C)CCC1OC1(C)C (stereo unspecified),28.6 µM,–
COc1cc2ccc3c4cc(OC)c(OC)cc4c[n+](C)c3c2cc1O,> 48.1 µM,–
CN(C)CCNC(=O)c1cccc2c1Nc1ccccc1S2,24.5 µM,–
CC(=O)NNc1nc(C)c(C(=O)NNC(=O)C(=O)Nc2ccc([N+](=O)[O-])cc2[N+](=O)[O-])s1,> 100 µM,–
CCOC(=O)C1C(c2ccc(Cl)cc2Cl)NC(c2ccc(C)cc2)C(C(=O)OC)S1(=O)=O (stereo unspecified),> 100 µM,–
COc1cccc(C2c3cc4c(cc3OC(O)C2C)OCO4)c1OC (stereo unspecified),16.2 µM,–
CCOC(=O)/C=C/c1nc(C#N)c(N)o1,> 100 µM,–
CN(/N=C1\C(=O)Nc2ccccc21)c1ccccc1,> 100 µM,–

# System: CAKI-1 renal
# Test: growth of human tumour cells (NCI), 48 h
Structure (SMILES),TGI,GI50
COc1ccc2ccc3oc(=O)c(C)cc3c2c1,> 100 µM,–
CN(C)c1nc(Oc2nc(N(C)C)nc(N(C)C)n2)nc(N(C)C)n1,> 100 µM,–
CCCCCCCC(=O)OCC(COC(=O)C(C)(C)C)OC(=O)Cc1ccccc1 (stereo unspecified),> 100 µM,–
CN(C)CCn1c(=O)c2ccc(NCCCN(C)CCCNc3ccc4c(=O)n(CCN(C)C)c(=O)n5c6ccc(O)cc6c(=O)c3c45)c3c(=O)c4cc(O)ccc4n(c1=O)c23,2.23 µM,–
S=C(Cc1ccc2c(c1)Sc1ccccc1O2)N1CCOCC1,> 100 µM,–
COc1ccc2c(c1)c1c(n2CCN2CCCCC2)-c2cccc(OC)c2CC1,37.7 µM,–
Cn1nc(-c2ccc(S(=O)(=O)/N=C(\NN)Nc3ccc(Cl)cc3)s2)cc1C(F)(F)F,35.1 µM,–
COc1cc(C)c(CC/C(C)=C/Cc2cc(O)ccc2O)c(C)c1C,> 25 µM,–
Cc1ccccc1-c1nc2c(N)nc(N)nc2nc1N,> 100 µM,–
c1ccc(-c2c(-c3ccccc3)[n+](Cc3ccc4ccccc4c3)c(-c3ccc(-c4nc5ccccc5s4)cc3)n2Cc2ccc3ccccc3c2)cc1,0.451 µM,0.189 µM
CC1CC(N2CCOCC2)=Nc2ccccc2N1C (stereo unspecified),> 100 µM,–
CN(C)C(=O)C(F)(F)C(c1ccc(F)cc1)C1C(=O)N(C)C(=O)N(C)C1=O (stereo unspecified),> 100 µM,–
Cc1c(N2CCOCC2)nc2ccc(Cl)cc2c1-c1ccccc1,> 100 µM,–
O=c1[nH]c(NCc2ccncc2)nc2nc[nH]c12,> 100 µM,–
c1c[nH]c(-c2cccc3nsnc23)c1,> 100 µM,–
Cc1cc([N+](=O)[O-])c(C)c2c1[nH]c1ccc(Cl)cc12,> 100 µM,–
COc1ccc(C2Oc3ccc(Cl)cc3C=C2[N+](=O)[O-])cc1 (stereo unspecified),> 100 µM,–
COCOc1ccc(C(=O)Oc2cccc3c2OC(C)(C)O3)c(OCOC)c1,> 100 µM,–
NCCN1CCCCCc2ccccc21,> 10 µM,–
CN(CCN1CCCC1)C1CCc2cc(Cl)c(Cl)cc2C1 (stereo unspecified),33.6 µM,–
CO/N=C1\CC(NC(=O)C(F)(F)F)c2ccsc21 (stereo unspecified),> 100 µM,–
COC(=O)/C=C(\C)CC/C=C(\C)CCC1OC1(C)C (stereo unspecified),22.3 µM,–
COc1ccc(CNc2cnc3ccc(N)cc3n2)cc1,> 100 µM,–
COc1cc2ccc3c4cc(OC)c(OC)cc4c[n+](C)c3c2cc1O,> 100 µM,–
CC(=O)NNc1nc(C)c(C(=O)NNC(=O)C(=O)Nc2ccc([N+](=O)[O-])cc2[N+](=O)[O-])s1,> 100 µM,–
CCOC(=O)C1C(c2ccc(Cl)cc2Cl)NC(c2ccc(C)cc2)C(C(=O)OC)S1(=O)=O (stereo unspecified),> 100 µM,–
COc1cccc(C2c3cc4c(cc3OC(O)C2C)OCO4)c1OC (stereo unspecified),13.9 µM,–
CCOC(=O)/C=C/c1nc(C#N)c(N)o1,> 100 µM,–
CN(/N=C1\C(=O)Nc2ccccc21)c1ccccc1,> 100 µM,–

# System: HL-60(TB) leukemia
# Test: growth of human tumour cells (NCI), 48 h
Structure (SMILES),TGI,GI50
COc1ccc2ccc3oc(=O)c(C)cc3c2c1,> 100 µM,–
CN(C)c1nc(Oc2nc(N(C)C)nc(N(C)C)n2)nc(N(C)C)n1,> 100 µM,–
CCCCCCCC(=O)OCC(COC(=O)C(C)(C)C)OC(=O)Cc1ccccc1 (stereo unspecified),> 100 µM,–
Cc1nnc2n(c1=O)CCCN2C,> 100 µM,–
Nc1ncnc2c1nnn2C1C=CC(CP(=O)(O)O)C1 (stereo unspecified),> 100 µM,–
CN(C)CCn1c(=O)c2ccc(NCCCN(C)CCCNc3ccc4c(=O)n(CCN(C)C)c(=O)n5c6ccc(O)cc6c(=O)c3c45)c3c(=O)c4cc(O)ccc4n(c1=O)c23,0.701 µM,–
S=C(Cc1ccc2c(c1)Sc1ccccc1O2)N1CCOCC1,> 100 µM,–
c1ccc2c(c1)SCCCS2,> 100 µM,–
O=[N+]([O-])c1ccc(C[P+]2(c3ccccc3)CCCCC2)cc1,> 100 µM,–
Cn1nc(-c2ccc(S(=O)(=O)/N=C(\NN)Nc3ccc(Cl)cc3)s2)cc1C(F)(F)F,22.6 µM,–
C[C@]12CCC3[C@@H](CCC45OC4C(=O)CC[C@]35C)C1Cc1cnn(-c3ccc(F)cc3)c1N2 (stereo partly specified),41.9 µM,–
COc1cc(C)c(CC/C(C)=C/Cc2cc(O)ccc2O)c(C)c1C,> 25 µM,–
Cc1ccccc1-c1nc2c(N)nc(N)nc2nc1N,> 100 µM,–
c1ccc(-c2c(-c3ccccc3)[n+](Cc3ccc4ccccc4c3)c(-c3ccc(-c4nc5ccccc5s4)cc3)n2Cc2ccc3ccccc3c2)cc1,0.471 µM,0.149 µM
CC1CC(N2CCOCC2)=Nc2ccccc2N1C (stereo unspecified),> 100 µM,–
